Test results published in paper PMC12406664, “New derivatives of 6-nitrocoumarin-3-thiosemicarbazone exhibit improved antiparasitic activity in the placenta against Trypanosoma cruzi and Toxoplasma gondii” (Antimicrobial Agents and Chemotherapy, 2025).

What was measured:
[1] = tested on: T. cruzi trypomastigotes, Dm28 strain; assay: Resazurin viability assay on free T. cruzi trypomastigotes; conditions: Trypanosoma cruzi, 24 h, read-out: Viability T. cruzi (%)
Experimental: The reduction of resazurin sodium salt was used to determine the trypanocidal and toxoplasmicidal activity of the 6-nitrocoumarin-thiosemicarbazone hybrids 1–8. For this, treatment with the compounds was carried out for 24 h at a concentration of 100 µM.
NFX was used as a positive control for T. cruzi, and PMN was used for T. gondii. Untreated parasites served as a negative control. […] Subsequently, parasites with their respective conditions were transferred to a 96-well white fluorescence reading plate, adding resazurin at a final concentration of […] with 0.8 mM phenazine. The plate was incubated for 3 hours at 37°C in a humidified atmosphere with 5% CO2, and fluorescence measurements were taken using a microplate reader (Thermo Scientific Varioskan Flash) at excitation wavelengths of 560 nm and emission wavelengths of 590 nm.

[2] = Lipophilicity by reversed-phase TLC (RM); conditions: reverse phase-C18, DMSO/phosphate buffer pH 7.4 (70:30 vol/vol), RM = log[(1/Rf) – 1]
Experimental: Lipophilicity was studied by reversed-phase TLC experiments. Precoated TLC plates SIL RP-18W/UV254 were used and eluted with DMSO/physiological serum (70:30, vol/vol). Stock solutions were prepared in pure DMSO (Aldrich) prior to use. The plates were developed in a closed chromatographic tank, dried, and the spots were located under UV light. The Rf values were averaged from three determinations and converted into RM values via the relationship: RM = log [(1/Rf)−1]

[3] = tested on: T. gondii tachyzoites, RH strain; assay: Resazurin viability assay on free T. gondii tachyzoites; assay type: cell-based, Toxoplasma gondii; conditions: Toxoplasma gondii; tachyzoites RH; 100 µM; 24 h
Source text: Untreated parasites served as a negative control.

[4] = Cyclic voltammetry, reduction potentials in DMSO (HDME, vs. Ag/AgCl); conditions: 2.00 V/s; for E(pIIa): anodic peak IIa; for E(pIIc): cathodic peak IIc, nitro anion radical couple; for E(pIca): cathodic peak Ica; for E(pIca) / E(pIcb): nitro reduction; for E(pIcb): cathodic peak Icb; for E(pIIIc): cathodic peak IIIc, hydroxylamine formation; for E(pIVc): cathodic peak IVc, imine reduction
Experimental: Electrochemical studies were carried out on a Metrohm Autolab instrument model PGSTAT204, using dimethyl sulfoxide (DMSO) as the solvent (1 mM solutions), tetrabutylammonium perchlorate (0.1 M TBAP) as the supporting electrolyte, a hanging drop mercury electrode (HDME) as the working electrode, Ag/AgCl (3M KCl) as the reference electrode and a graphite rod as the counter electrode. All measurements were performed after bubbling with nitrogen (N2) for 10 minutes.

T. gondii = tested on: T. gondii; design: method as in ref 26 (a), 34 (e), 38 (f); conditions: Fig. 2 literature compounds; ref 26 (a), 34 (e), 38 (f); cited from earlier work
T. cruzi = tested on: T. cruzi; design: method as in ref 28 (b), 32, 33 (c, d); conditions: Fig. 2 literature compounds; ref 28 (b), 32, 33 (c, d); cited from earlier work

Structure (SMILES) | viability at 100 µM [1] [%] | Lipophilicity (RM) [2] | viability at 100 µM [3] [%] | E(pIIa) [4] [V] | E(pIIc) [4] [V] | also measured
CNC(=S)N/N=C(\C)c1c(O)c2cc([N+](=O)[O-])ccc2oc1=O [Compound 2, (E)−2-(1-(4-hydroxy-6-nitro-2-oxo-2H-chromen-3-yl)ethylidene)-N-methylhydrazine-1-carbothioamide] | 81.5 ± 14.1 | 0.13 | 29.1 ± 13.5 | −1.01 | −1.08 | E(pIca) [4]: −0.89 V; E(pIcb) [4]: −0.99 V
CCNC(=S)N/N=C(\C)c1c(O)c2cc([N+](=O)[O-])ccc2oc1=O [Compound 3, (E)-N-ethyl-2-(1-(4-hydroxy-6-nitro-2-oxo-2H-chromen-3-yl)ethylidene)hydrazine-1-carbothioamide] | 70.7 ± 9.4 | 0.33 | 49.6 ± 13.5 | −1.00 | −1.08 | E(pIca) [4]: −0.88 V; E(pIcb) [4]: −0.99 V
C/C(=N\NC(=S)Nc1ccccc1)c1c(O)c2cc([N+](=O)[O-])ccc2oc1=O [Compound 4, (E)−2-(1-(4-hydroxy-6-nitro-2-oxo-2H-chromen-3-yl)ethylidene)-N-phenylhydrazine-1-carbothioamide] | 50.3 ± 5 | 0.85 | 84.4 ± 13.7 | −1.01 | −1.09 | E(pIca) [4]: −0.62 V; E(pIcb) [4]: −1.05 V
C/C(=N\NC(N)=S)c1cc2cc([N+](=O)[O-])ccc2oc1=O [Compound 5, (E)−2-(1-(6-nitro-2-oxo-2H-chromen-3-yl)ethylidene)hydrazine-1-carbothioamide] | 44.6 ± 7.1 | −0.58 | 65.7 ± 14.8 | −0.90 | ~−0.94 | E(pIIIc) [4]: ~−1.38 V; E(pIVc) [4]: ~−1.66 V
CNC(=S)N/N=C(\C)c1cc2cc([N+](=O)[O-])ccc2oc1=O [Compound 6, (E)-N-methyl-2-(1-(6-nitro-2-oxo-2H-chromen-3-yl)ethylidene)hydrazine-1-carbothioamide] | 49.8 ± 5.3 | −0.41 | 55.5 ± 9.6 | −0.87 | −0.93 | E(pIIIc) [4]: −1.40 V; E(pIVc) [4]: −1.68 V
COc1ccc(/C(COc2ccc(F)cc2)=N\NC(N)=S)cc1 [a] |  |  |  |  |  | IC50 (T. gondii): 1.09 µM
NC(=S)N/N=C/c1ccc([N+](=O)[O-])o1 [b] |  |  |  |  |  | IC50 (T. cruzi): 9.8 µM
O=C(Cc1c([N+](=O)[O-])c(=O)oc2ccccc12)c1cccnc1 [c] |  |  |  |  |  | IC50 (T. cruzi): 137 µM
O=c1oc2c(O)c(O)ccc2cc1-c1ccccc1O [d] |  |  |  |  |  | IC50 (T. cruzi): 39.7 µM
C/C(=N\N=C1\NC(=O)CS1)c1cc2ccccc2oc1=O [e] |  |  |  |  |  | IC50 (T. gondii): 8 µM
O=C(O)c1cn(C2CC2)c2cc(N3CCN(Cc4ccc([N+](=O)[O-])o4)CC3)c(F)cc2c1=O [f] |  |  |  |  |  | IC50 (T. gondii): 7.9 µM
